From patent US20080207859A1, “F[…] LOW RESIDUAL AMOUNT OF F[…] PROCESS FOR ITS PRODUCTION” (Asahi Glass Company, Limited, priority 2005, published 2008)

Assay: Measurement of 1-octanol/water partition coefficient (LogPOW) by HPLC, OECD Test Guideline 117
Format: physicochemical
Details: for LogPOW (1-octanol/water partition coefficient): HPLC method, OECD Test Guideline 117, calculated from elution time via calibration curve of standard carboxylic acids, column temperature 40° C.; for bioaccumulation potential (judged from LogPOW value compared to APFO): inferred from LogPOW relative to APFO
Experimental: In accordance with OECD Test Guideline 117, 1-octanol/water partition coefficient (LogPOW) of a fluorinated emulsifier was measured by using HPLC (high performance liquid chromatography).
Conditions for the measurement were as follows:
column: TOSOH ODS-120T column (φ4.6 mm×250 mm), eluent: acetonitrile/0.6 mass % of HClO4 aqueous solution=1/1 (vol/vol %), flow rate: […], sample amount: 300 μL, column temperature: 40° C., and detection light: UV 210 nm (WO2005-42593).
HPLC was carried out on standard substances (heptanoic acid, octanoic acid, nonanoic acid and decanoic acid) having known 1-octanol/water partition coefficients, and a calibration curve was prepared from the respective elution times and octanol/water partition coefficients of the respective standard substances. Based on this calibration curve, a value of partition coefficient (LogPOW) between 1-octanol and water was calculated from the elution time by HPLC of the fluorinated emulsifier.

## N.O=C(O)C(F)(OC(F)(F)C(F)(OC(F)(F)C(F)(F)F)C(F)(F)F)C(F)(F)F (centres unmarked) [CF3CF2OCF(CF3)CF2OCF(CF3)COONH4]
  LogPOW (1-octanol/water partition coefficient): 4.03
  bioaccumulation potential (judged from LogPOW value compared to APFO): high

## N.O=C(O)C(F)(F)OC(F)(F)C(F)(F)OC(F)(F)C(F)(F)F [CF3CF2OCF2CF2OCF2COONH4]
  LogPOW (1-octanol/water partition coefficient): 3.13
  bioaccumulation potential (judged from LogPOW value compared to APFO): low

## N.O=C(O)C(F)(F)C(F)(F)C(F)(F)C(F)(F)C(F)(F)C(F)(F)C(F)(F)F [CF3(CF2)6COONH4, ammonium perfluorooctanoate]
  LogPOW (1-octanol/water partition coefficient): 3.67
